Experimental data from patent US7560466B2, “Methods of treating or preventing autoimmune diseases with 2,4-pyrimidinediamine compounds” (Rigel Pharmaceuticals, Inc., priority 2003, dated 2009).
Structures can show the parent of a compound that is named as a salt. Where two headings read alike, the source gives them in different places. One block for each molecule: values may come before it.

Legend:
[1] = test system: cultured human mast cells (CHMC), ionomycin-induced degranulation; assay: CHMC low cell density ionomycin activation: tryptase assay; assay type: cell-based; conditions: read-out: LD Tryptase, CHMC, Iono, 3pt
[2] = test system: cultured human mast cells (CHMC), IgE-induced degranulation; assay: CHMC low cell density IgE activation: tryptase assay; assay type: cell-based
Summary of the method: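 Tryptase release read fluorogenically (30 min, room temperature) from supernatants of anti-IgE-challenged cultured human mucosal mast cells derived from umbilical cord CD34+ cells, at low density of 1000–1500 cells/well.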

[3] = CHMC low cell density, ionomycin activation, 3pt
[4] = CHMC low cell density, 3pt, read-out: LD Tryptase, CHMC, IgE, 3pt
[5] = CHMC low cell density, 8pt, read-out: LD Tryptase, CHMC, IgE, 8pt
[6] = low cell density CHMC, ionomycin activation, 3-point
[7] = low cell density CHMC, 3-point, read-out: LD Tryptase, CHMC, IgE, 3pt
[8] = low cell density CHMC, 8-point, read-out: LD Tryptase, CHMC, IgE, 8pt
[9] = low cell density CHMC, ionomycin activation, 3pt
[10] = low cell density CHMC, 3pt, read-out: LD Tryptase, CHMC, IgE, 3pt
[11] = low cell density CHMC, 8pt, read-out: LD Tryptase, CHMC, IgE, 8pt

IC50 [1, 3]: < 10 µM
IC50 [2, 4]: < 10 µM
IC50 [2, 5]: < 10 µM
Molecule: CNC(=O)COc1c(C)cc(Nc2ncc(F)c(N(C)c3ccc4c(c3)OCCO4)n2)cc1C [Compound 635, N2-[3,5-Dimethyl-4-(N-methylamino)carbonylmethyleneoxyphenyl]-N4-(3,4-ethylenedioxyphenyl)-5-fluoro-N4-methyl-2,4-pyrimidinediamine]

IC50 [1, 3]: > 10 µM
IC50 [2, 4]: < 10 µM
IC50 [2, 5]: < 10 µM
Molecule: CNC(=O)Cn1ccc2ccc(Nc3ncc(F)c(Nc4ccc5c(c4)OCCO5)n3)cc21 [Compound 649, N4-(3,4-Ethylenedioxyphenyl)-5-fluoro-N2-[1-(N-methylamino)carbonylmethyleneindol-6-yl]-2,4-pyrimidinediamine]

IC50 [1, 6]: > 10 µM
IC50 [2, 7]: > 10 µM
Molecule: CC1(C)CNc2nc(Nc3nc(Cl)ncc3F)ccc2O1 [Compound 1051, 2-Chloro-N4-(3,4-dihydro-2,2-dimethyl-4H-5-pyrid[1,4]oxazin-6-yl)-5-fluoro-4-pyrimidinea mine]

IC50 [1, 6]: > 10 µM
IC50 [2, 7]: < 10 µM
IC50 [2, 8]: < 10 µM
Molecule: CC1(C)Oc2ccc(Nc3nc(Nc4cccc(-c5cocn5)c4)ncc3F)nc2NC1=O [Compound 1029, N4-(2,2-Dimethyl-3-oxo-4H-5-pyrid[1,4]oxazin-6-yl)-5-fluoro-N2-[3-(oxazol-4-yl)phenyl]-2,4-pyrimidinediamine]

Molecule: CNC(=O)COc1cccc(Nc2ncc(F)c(Nc3ccc4c(c3)NC(=O)C(F)(F)O4)n2)c1 [Compound 1046, N4-(2,2-Difluoro-3-oxo-4H-benz[1,4]oxazin-6-yl)-5-fluoro-N2-[3-(N-methylamino)carbonylmethyleneoxyphenyl]-2,4-pyrimidinediamine Methanesulfonic Acid Salt]
IC50 [1, 6]: > 10 µM
IC50 [2, 7]: < 10 µM
IC50 [2, 8]: < 10 µM

IC50 [1, 3]: > 10 µM
IC50 [2, 4]: < 10 µM
Molecule: CNC(=O)COc1c(C)cc(Nc2ncc(F)c(Nc3ccc4c(c3)OC(F)(F)C(F)(F)O4)n2)cc1C [Compound 637, N2-[3,5-Dimethyl-4-(N-methylamino)carbonylmethyleneoxyphenyl]-5-fluoro-N4-[3,4-(tetrafluoroethylenedioxy)phenyl]-2,4-pyrimidinediamine]

IC50 [1, 3]: < 10 µM
IC50 [2, 4]: < 10 µM
Molecule: N2-(3-Chloro-4-methoxyphenyl)-N4-(2,2-dimethyl-3-oxo-4H-benz[1,4]oxazin-6-yl)-5-fluoro-N4-methyl-2,4-pyrimidinediamine [Compound 394]

IC50 [1, 3]: < 10 µM
IC50 [2, 5]: < 10 µM
Molecule: CNC(=O)COc1cccc(Nc2ncc(F)c(Nc3ccc4c(c3)NCC(C)(C)O4)n2)c1 [Compound 1000, N4-(3,4-Dihydro-2,2-dimethyl-4H-benz[1,4]oxazin-6-yl)-5-fluoro-N2-[3-(N-methylamino)carbonylmethyleneoxyphenyl]-2,4-pyrimidinediamine]

IC50 [1, 3]: > 10 µM
IC50 [2, 4]: < 10 µM
IC50 [2, 5]: < 10 µM
Molecule: COC(=O)Cn1ccc2ccc(Nc3ncc(F)c(Nc4ccc5c(c4)OCCO5)n3)cc21 [Compound 642, N4-(3,4-Ethylenedioxyphenyl)-5-fluoro-N2-[1-(methoxycarbonylmethylene)indol-6-yl]-2,4-pyrimidinediamine]

IC50 [1, 6]: > 10 µM
IC50 [2, 7]: < 10 µM
IC50 [2, 8]: < 10 µM
Molecule: Cc1cc(Nc2ncc(F)c(Nc3ccc4c(n3)NC(=O)C(C)(C)O4)n2)cc(Cl)c1OCC(=O)NCC(O)CO (stereo not drawn) [Compound 1043, N2-[3-Chloro-4-[N-(2,3-dihydroxypropyl)amino]carbonylmethyleneoxy-5-methylphenyl]-N4-(2,2-dimethyl-3-oxo-4H-5-pyrid[1,4]oxazin-6-yl)-5-fluoro-2,4-pyrimidinediamine]

IC50 [1, 9]: > 10 µM
IC50 [2, 10]: < 10 µM
IC50 [2, 11]: < 10 µM
Molecule: CC1(C)COc2ccc(Nc3nc(Nc4ccc(-c5cnco5)cc4)ncc3F)cc2N1 [Compound 223, N4-(3,4-Dihydro-3,3-dimethyl-2H,4H-benz[1,4]oxazin-6-yl)-5-fluoro-N2-[4-(oxazol-5-yl)phenyl]-2,4-pyrimidinediamine]

IC50 ([1]; low cell density CHMC, ionomycin activation (2 μM final), 3pt): > 10 µM
IC50 [2, 10]: < 10 µM
Molecule: N4-(2,2-Difluoro-3-oxo-4H-benz[1,4]oxazin-6-yl)-5-fluoro-N2-[4-[N-(N-methylamino)carbanylmethylene]aminocarbonyl phenyl]-2,4-pyrimidinediamine [Compound 1297]

IC50 [1, 3]: > 10 µM
IC50 [2, 4]: < 10 µM
IC50 [2, 5]: < 10 µM
Molecule: COC(=O)Cn1ccc2cc(Nc3ncc(F)c(Nc4ccc5c(c4)NC(=O)C(C)(C)O5)n3)ccc21 [Compound 643, N4-(2,2-Dimethyl-3-oxo-4H-benz[1,4]oxazin-6-yl)-5-fluoro-N2-[1-(methoxycarbonylmethylene)indol-5-yl]-2,4-pyrimidinediamine]

IC50 [1, 9]: > 10 µM
IC50 [2, 10]: < 10 µM
IC50 [2, 11]: < 10 µM
Molecule: Fc1cnc(Nc2cccc(-c3cnco3)c2)nc1Nc1ccc2c(c1)NCCO2 [Compound 232, N4-(3,4-Dihydro-2H,4H-benz[1,4]oxazin-6-yl)-5-fluoro-N2-[3-(oxazol-5-yl)phenyl]-2,4-pyrimidinediamine]

Molecule: Cn1ncc2ccc(Nc3ncc(F)c(Nc4ccc5c(n4)NC(=O)C(C)(C)O5)n3)cc21 [Compound 1056, N4-(2,2-Dimethyl-3-oxo-4H-5-pyrid[1,4]oxazin-6-yl)-5-fluoro-N2-[1-methylindazol-6-yl]-2,4-pyrimidinediamine Hydrogen Chloride Salt]
IC50 [1, 6]: > 10 µM

Molecule: CNC(=O)COc1cccc(Nc2ncc(F)c(Nc3ccc4c(n3)NC(=O)C(C)(C)O4)n2)c1 [Compound 992, N4-(2,2-Dimethyl-3-oxo-4H-5-pyrid[1,4]oxazin-6-yl)-5-fluoro-N2-[3-(N-methylamino)carbonylmethyleneoxyphenyl]-2,4-pyrimidinediamine (+)-Camphorsulfonic Acid Salt]
IC50 [1, 3]: > 10 µM

IC50 [2, 11]: < 10 µM
Molecule: CNC(=O)COc1cccc(Nc2ncc(F)c(Nc3ccc4c(c3)NC(=O)C(C)S4(=O)=O)n2)c1 (racemic) [Compound 285, racemic-5-Fluoro-N2-[3-(N-methylamino)carbonylmethyleneoxyphenyl]-N4-(2-methyl-1,1,3-trioxo-2H,4H-benzo[1,4]thiazin-6-yl)-2,4-pyrimidinediamine]

IC50 [2, 4]: < 10 µM
IC50 [2, 5]: < 10 µM
Molecule: COCCCn1ncc2ccc(Nc3ncc(F)c(Nc4ccc5c(n4)NC(=O)C(C)(C)O5)n3)cc21 [Compound 839, N4-(2,2-Dimethyl-3-oxo-4H-5-pyrid[1,4]oxazin-6-yl)-5-fluoro-N2-[1-(3-methoxypropyl)indazol-6-yl]-2,4-pyrimidinediamine]

IC50 [2, 4]: < 10 µM
Molecule: CCn1c(C)nc2cc(Nc3ncc(F)c(Nc4ccc5c(n4)NC(=O)C(C)(C)O5)n3)ccc21 [Compound 936, N4-(2,2-Dimethyl-3-oxo-4H-5-pyrido[1,4]oxazin-6-yl)-N2-(1-ethyl-2-methylbenzimidazol-5-yl)-5-fluoro-2,4-pyrimidinediamine]

IC50 [2, 4]: < 10 µM
Molecule: Cc1cc(Nc2ncc(F)c(Nc3ccc4c(c3)OC(F)(F)C(F)(F)O4)n2)cc(C(F)(F)F)c1 [Compound 366, 5-Fluoro-N2-(3-methyl-5-trifluoromethyl)-N4-[3,4-(tetrafluoroethylenedioxy)phenyl]-2,4-pyrimidinediamine]

IC50 [2, 10]: > 10 µM
Molecule: CC1C(=O)Nc2cc(Nc3nc(Cl)ncc3F)ccc2S1(=O)=O (racemic) [Compound 317, racemic-N2-Chloro-5-fluoro-N4-(2-methyl-1,1,3-trioxo-2H,4H-benzo[1,4]thiazin-6-yl)-4-pyrimidinea mine]

IC50 [2, 8]: < 10 µM
Molecule: O=C1COc2ccc(Nc3nc(Nc4cccc(N5CCOCC5)c4)ncc3F)nc2N1 [Compound 1073, 5-Fluoro-N2-(3-morpholinophenyl)-N4-(3-oxo-2H,4H-5-pyrid[1,4]oxazin-6-yl)-2,4-pyrimidinediamine]

IC50 [2, 7]: > 10 µM
IC50 [2, 8]: < 10 µM
Molecule: Cc1cc(C)cc(Nc2ncc(F)c(Nc3ccc4c(n3)NC(=O)[C@H](C)O4)n2)c1 [Compound 1084, (S)—N2-(3,5-Dimethylphenyl)-5-fluoro-N4-(2-methyl-3-oxo-2H,4H-5-pyrid[1,4]oxazin-6-yl)-2,4-pyrimidinediamine]

IC50 [2, 11]: < 10 µM
Molecule: CNC(=O)COc1cccc(Nc2ncc(F)c(Nc3ccc4c(c3)NC(=O)C(C)S4)n2)c1 (stereo not drawn) [Compound 279, 5-Fluoro-N2-[3-(N-methylamino)carbonylmethyleneoxyphenyl]-N4-(2-methyl-3-oxo-2H,4H-benzo[1,4]thiazin-6-yl)-2,4-pyrimidinediamine]

IC50 [2, 7]: < 10 µM
IC50 [2, 8]: < 10 µM
Molecule: Fc1cnc(Nc2cccc(N3CCOCC3)c2)nc1Nc1ccc2c(n1)NCCO2 [Compound 1136, N4-(3,4-Dihydro-2H,4H-5-pyrid[1,4]oxazin-6-yl)-5-fluoro-N2-(3-morpholinophenyl)-2,4-pyrimidinediamine]

IC50 [2, 8]: < 10 µM
Molecule: CCOC(=O)N1CCN(c2cccc(Nc3ncc(F)c(Nc4ccc5c(n4)NC(=O)C(C)(C)O5)n3)c2)CC1 [Compound 1075, N4-(2,2-Dimethyl-3-oxo-4H-5-pyrid[1,4]oxazin-6-yl)-N2-[3-(4-ethoxycarbonylpiperazino)phenyl]-5-fluoro-2,4-pyrimidinediamine]

IC50 [2, 4]: < 10 µM
IC50 [2, 5]: < 10 µM
Molecule: CC1(C)Oc2ccc(Nc3nc(Nc4ccc5c(cnn5CCCO)c4)ncc3F)nc2NC1=O [Compound 838, N4-(2,2-Dimethyl-3-oxo-4H-5-pyrid[1,4]oxazin-6-yl)-5-fluoro-N2-[1-(3-hydroxypropyl)indazol-5-yl]-2,4-pyrimidinediamine]
